Measurements reported in patent publication US20180064662A1 (THE GENERAL HOSPITAL CORPORATION, priority 2015, published 2018).

Tests used:
[1] = tested on: human pancreatic stellate cells (PSCs); experiment: Human PSCs incubated with metformin in vitro (immunofluorescence, Western blot); format: cell-based
Procedure: Following treatment, cells were collected for RNA and protein extraction in order to perform subsequent analysis of gene expression of cytokines and polarization markers, and for analysis of signaling and metabolic pathways. […] Cells were collected for protein extraction for analysis of the activation of fibrosis-related pathways. […] The cells were fixed with 4% paraformaldehyde and blocked with 5% normal donkey serum for 1 h. They were incubated with the designated primary antibodies overnight at 4° C. then for 2 h with the appropriate secondary antibodies at RT. PBS was used for all washes and the stained samples were mounted with Prolong Gold with DAPI. Images were acquired using a confocal microscope. The antibodies used and image acquisition settings are described below. Both cell types were grown in Dulbecco's modified Eagle's medium (Sigma, St. Louis, Mo.) supplemented with 5% (v/v) heat inactivated fetal bovine serum (FBS; Sigma), 100 units/ml penicillin and streptomycin. Cells were cultured at 37° C. in a humidified atmosphere including 5% CO2.
Each tumor sample was homogenized directly in lysis buffer for protein extraction. 20 ug of denatured protein per sample was loaded on 7%, 10% and 12% SDS-polyacrylamide gels. Antibodies used: phospho-p38 MAPKT^180/Y182 and p38; phospho-JNK (SAPK/JNK)^Thr183/Tyr185 and JNK; phospho-AKT^Ser473 and AKT, phospho-ERK(p44/42 MAPK)^T202/Y204 and ERK; phospho-NF-κB^Ser536 and NK-κB; p65^Ser536; phospho-Smad2^Ser465/467 and Smad2; phospho-IGF-I Receptor β^Tyr1135 and IGF; Phospho-IRS-1^Ser612 and IRS; IR; phpspho-stat3^Tyr705 and stat3; Phospho-AMPKα^Thr172 and Ampkα; phospho-Ampkβ^Ser108 and Ampk; phospho-ACC^Ser79 and ACC; Phospho-PDGF Receptor β^Tyr751 and PDGF Receptor β and snail, c-cadherin and vimentin, TGF-β, β-catenin, twist, LC3B. All antibodies listed above were obtained from Cell Signaling Technology (Beverly, Mass.), and diluted 1:1000 with the exception of phospho-JNK (SAPK/JNK)^Thr183/Tyr185, Phospho-NF-κB p65^Ser536, phospho-Smad2^Ser465/467, phospho-IGF-I Receptor β^Tyr1135, Cleaved caspase-3, Phospho-IRS-1^Ser612. Other antibodies used were: αSMA and phospho-Insulin Receptor^Y972 (1:1000 and 1:500, Abcam, Mass.); col-1 (1:1000); MMP-9 and MMP-2 (1:500 and 1:200, EMD Millipore-Billerica, Mass.), AT1 (1:1000, LifeSpan BioSciences Inc, WA), ZEB1 (1:1000, Novus Biologicals, CO), and β-actin (1:5000, Sigma, Mo.). Quantification of protein expression relative to total receptor or β-actin was obtained using Image J software.

PAN02 tumors = tested on: PAN02 tumors
From the text: All experimental use of animals was approved by the institutional animal care and use committee at Massachusetts General Hospital (MGH). All animal procedures abided by Public Health Service Policy on Humane Care of Laboratory Animals guidelines. All mice were bred and maintained MGH animal facility. Wild-type (WT) C57BL/6 mice were originally obtained from the Jackson Laboratory (The Jackson Laboratory, Bar Harbor, Me.) but were bred and maintained in a defined-flora colony. VEGFR1 tyrosine kinase-knockout mice (Flt1^TK−/−) of mixed C57BL/6 and SV129 strain background were originally developed at the University of Tokyo, Japan (Hiratsuka et al. Proc Natl Acad Sci USA (1998)95(16): 9349-54), and subsequently backcrossed to 99.9% C57BL/6 strain background (N10 equivalent) at Massachusetts General Hospital. Strain background was verified by the Jackson Laboratory's Speed Congenic Development Service. Genotyping was performed using polymerase chain reaction (PCR) analysis, as previously described (Hiratsuka et al.). Age-matched animals were used for all experiments. Mice were maintained on a 12-h light-dark cycle in a temperature-controlled barrier facility, with ad libitum access to food and acidified water, unless otherwise specified.
Mice (7-week old) were given either 10% or a 60% fat diet (D12450J and D12492, Research Diets, New Brunswick, N.J.) for 10 weeks, as described in Surwit et al. Metabolism (1995) 44(5):645-51. Body weight was monitored weekly and mice on a high-fat diet were defined as obese if their body weight was greater than 3 SD above the weight of the low fat diet group. At the end of the experiment, animals were weighed and euthanized, and the inguinal, perigonadal, and perineal fat pads were excised and weighed.
Glucose (GTT) and insulin tolerance tests (ITT) were performed after 8 and 9 weeks on the diet, respectively. Male mice were fasted for 16 hours (5pm-9am) for GTT, or 3 hours (9am-12pm) for ITT. Glucose (0.75 mg/g body weight) or insulin (1U/kg body weight) was administered by intraperitoneal (i.p.) injection, and tail blood was sampled at 0, 15, 30, 60, 90, and 120 minutes after administration of glucose/insulin. Blood glucose levels were measured using a Precision Xtra glucose meter (Abbott Diagnostics, Bedford, MA, USA). Glucose tolerance was evaluated calculating the area under the curve (AUC) for each mouse according to the following equation: […]
C57BL/6 VEGFR1(TK)−/− or WT obese and lean mice (after 10 weeks of diets) were used for tumor implantation studies. To induce pancreatic tumors, small (˜1 mm in diameter) chunks from a PAN02 pancreatic tumor source were grafted in the pancreata of obese and lean male mice. To induce breast tumors, 1×10^6 E0771 breast cancer cells were implanted in the mammary fat pad of lean and obese female mice. About 3 weeks after implantation, tumors were removed and tissue was assessed for immune cell infiltration, gene and protein expression of inflammatory, metabolic and major signaling pathway markers. Plasma was also collected and assessed for insulin, IGF-1, glucose and inflammatory markers (see below). Metastatic burden was assessed by counting lung metastasis in the E0771 breast cancer model, and evaluating abdominal wall invasion as well as mesentery metastasis in the PAN02 pancreatic cancer model. For abdominal wall invasion, animals were scored from 0 to 3 based on the extent of invasion: 0=no invasion, 1=less than 3 metastasis, 2=less than 6 metastasis, 3=more than 6 metastasis.
Immediately following excision, tumor tissue was snap frozen and stored in liquid nitrogen until used. Total RNA was extracted and relative gene expression was determined using RT2 Profiler PCR Arrays system (Qiagen) on a Stratagene Mx3000P QPCR System.

[2] = VEGFR-1 inhibition and metformin combined

CN(C)C(=N)N=C(N)N [metformin, 3-(diaminomethylidene)-1,1-dimethylguanidine]
protein levels of MMP9 in PSCs ([1]; metformin 0, 0.1, 1 and 10 mM, Western blot): decreased protein levels of MMP9
expression of HA in PSCs ([1]; metformin 1 mM, 48 h): decreased
expression of collagen-I in PSCs ([1]; metformin 1 mM, 48 h): decreased
expression of AT1, TGF-β and downstream signaling via SMAD-2, PDGF-I3 ([1]; metformin 0.1-1mM, Western blot): reduced expression
canonical signaling pathways ERK, p38 and STAT3 ([1]; relatively higher doses (1-10 mM)): affected canonical signaling pathways
pericyte coverage in tumors (PAN02 tumors; [2]): increased pericyte coverage
vessel density in tumor and adipose tissue (PAN02 tumors; [2]): unaltered vessel density
tumor cell apoptosis (PAN02 tumors; combination group): increased tumor cell apoptosis
tumor cell proliferation (PAN02 tumors; combination group): decreased proliferation
fraction of perfused vessels (PAN02 tumors; combination group compared to control or anti-VEGFR-1 alone): significantly higher
IR/IGF-1 signaling or AMPK/ACC activation (PAN02 tumors; obese Flt1TK-/- mice with metformin): no changes
plasma insulin (PAN02 tumors; obese Flt1TK-/- mice, 3 weeks after implantation of PAN02): prevented the increased insulin
PAN02 tumor weight (PAN02 tumors; obese mice, VEGFR-1 inhibition and metformin combined): at its lowest
expression of major gluconeogenic genes downregulated by VEGFR-1 inhibition (PAN02 tumors; obese tumors): restored expression of major gluconeogenic genes
